Measurements as given in paper PMC10377091 (Brain Sciences, 2023).
Where two headings read alike, the source gives them in different places. One block for each compound: values may come before it.

Legend:
[1] = test system: hiPS-BCECs; assay: Cytotoxicity, CellTiter-Glo 2.0 Cell Viability Assay; conditions: 1% SDS (positive control), 4 h incubation, luminescence; mean ± SEM
Experimental: Cytotoxicity of phoenixin-14 against hiPS-BCECs was evaluated for three concentrations (1, 10, and 100 nMol) after 4 h incubation with untreated (negative control) and 1% Sodium Dodecyl Sulfate (SDS, Carl Roth, Karlsruhe, Germany)-treated (positive control) hiPS-BCECs as controls. After treatment, a CellTiter-Glo® 2.0 Cell Viability Assay (Promega, Mannheim, Germany) was performed according to the manufacturer’s instructions. Luminescence was measured with an Infinite M200 fluorescence reader (Tecan Group, Männedorf, Switzerland).
Cytotoxicity studies were performed in triplicate and three independent biological replicates. Transport studies were performed in duplicate and repeated three times. […] When feasible based on the number of values, data were tested for normality using the Kolmogorov–Smirnov test; otherwise, they were assumed to be non-normally distributed. Results from the toxicity studies were analyzed using Kruskal–Wallis test and significance values were adjusted according to Bonferroni correction regarding multiple testing. To compare the results of the transport studies, an unpaired t-test was applied. Data are presented as mean ± SEM. The level of significance was defined as p < 0.05 (*).

[2] = design: method as in PMID 34575559; conditions: in vivo in mice; cited from earlier work
[3] = test system: hiPSC-BCECs (brain capillary-like endothelial cells derived from human induced-pluripotent stem cells); design: method as in PMID 28344002; conditions: control substances, previously published experiments in the hiPSC-based BBB model; mean ± SEM; cited from earlier work
[4] = test system: hiPSC-BCECs (brain capillary-like endothelial cells derived from human induced-pluripotent stem cells); assay: Transport assay across hiPSC-derived BBB mono-culture model (hiPS-BCEC); format: in vitro ADME; conditions: for clearance value: mean ± SEM; for permeability coefficient (PC): apical to basolateral, 4 h, 37 °C, ELISA
Experimental: Human induced-pluripotent stem cells (hiPSC; IMR90-4, WiCell Research Institute, Madison, WI, USA) were cultured in mTeSRTM1 medium (StemCell Technologies, Vancouver, BC, Canada). The hiPSC-derived brain capillary-like endothelial cell (hiPS-BCEC) BBB model was built as previously described. In brief, using Accutase® solution (Sigma-Aldrich, Saint Louis, MO, USA), hiPSCs were dissociated into single cells and seeded in mTeSRTM1 medium (StemCell Technologies Inc.) including […]-27632 dihydrochloride (Tocris, Bristol, UK) on Matrigel® Growth Factor Reduced (GFR) Basement Membrane Matrix, Phenol Red-free (Corning, Corning, NY, USA) coated 6-well plates at a density of 7.5 × 103 hiPSC/cm^2. […] For the next two days, cells were treated with EC++ medium, consisting of human endothelial-[…], Thermo Fisher Scientific) supplemented with 200 × diluted serum-free B-27TM supplement (Thermo Fisher Scientific), 20 ng/mL hbFGF (PeproTech, Cranbury, NJ, USA), and 10 μM all-trans RA (Sigma-Aldrich). No medium change occurred on day 7. Using Accutase®, cells were seeded in EC++ medium at a density of 1 × 106 hiPSC/cm^2 onto 24-well ThinCert® cell culture inserts, with a pore size of 0.4 μm (Greiner BioOne, Frickenhausen, Germany), coated with 400 μg/mL collagen IV (Sigma-Aldrich) and supplemented with 100 μg/mL fibronectin (Thermo Fisher Scientific). Cells were cultured in EC++ medium for 24 h, followed by treatment with EC medium ([…] hbFGF and RA) for another 24 h, yielding purified hiPS-BCECs. Transport assays were performed in cell culture inserts (24-well format) on an orbital shaker (Edmund Buhler GmbH, Bodelshausen, Germany) at 100 rpm, 37 °C, 95% humidity, and 5% CO2. […] Stock solutions of commercially purchased phoenixin-14 (079-01, Phoenix Pharmaceuticals, Inc., Karlsruhe, Germany,) were diluted with EC medium to the desired concentrations (1 nMol or 10 nMol). In total, 200 μL of the final concentrations of phoenixin-14 were applied to the apical side of the BBB model. The basolateral side was supplied with 800 μL of EC medium. The transport was evaluated with a total incubation time of 4 h. Half-hourly, the basolateral medium was collected and replaced with fresh EC medium. As a control, the substances were incubated on empty collagen IV-/fibronectin-coated inserts to exclude major phoenixin-14 adsorption on the membrane. […] The concentration of phoenixin-14 in the apical and basolateral compartment was measured using a commercially purchased ELISA Kit (EK-079-01, Phoenix Pharmaceuticals). The intra-assay variability was 9.7%. The sensitivity for phoenixin was 0.07 ng/mL, while the linear detection ranged from 0.36 to 3.26 ng/mL (Phoenix Pharmaceuticals). […] Data are presented as mean ± SEM.

Compound: CCCCCCCCCCCCOS(=O)(=O)[O-].[Na+] [SDS, Sodium Dodecyl Sulfate]
cell viability in comparison to untreated hiPS-BCECs [1]: 0.37 ± 0.02%

Compound: Cn1c(=O)c2c(ncn2C)n(C)c1=O [caffeine]
clearance value [2]: 1.111e-05 mL/min | permeability coefficient (PC) [3]: 51.06 ± 9.90 µm/min

passage across the hiPSC-derived BBB model ([4]; 1 and 10 nMol, phoenixin-14 alone, in vitro): did not cross | clearance value ([4]; 1 nMol phoenixin-14, hiPS-BCEC mono-culture, resulting from PC): 6.83e-07 ± 1.39e-07 mL/min | permeability coefficient (PC) ([4]; 10 nMol phoenixin-14, hiPS-BCEC mono-culture, experiment 1 of 3): 0.059 µm/min | permeability coefficient (PC) ([4]; 10 nMol phoenixin-14, hiPS-BCEC mono-culture, experiment 2 of 3): 0.056 µm/min | permeability coefficient (PC) ([4]; 10 nMol phoenixin-14, hiPS-BCEC mono-culture, experiment 3 of 3): 0.019 µm/min | clearance value ([4]; 10 nMol phoenixin-14, hiPS-BCEC mono-culture, based on PC): 1.779e-06 ± 8.17e-07 mL/min
Compound: H-DVQPPGLKVWSDPF-NH2 [phoenixin-14]
